US20200207734A1, “HETEROCYCLIC COMPOUND AND USE THEREOF” (Takeda Pharmaceutical Company Limited, priority 2017, published 2020)

Molecular target: T1, human orexin type 2 receptor (Homo sapiens, UniProt O43614)
T1 construct: human orexin type 2 receptor cDNA was inserted into pcDNA3.1(+) plasmid vector (Invitrogen); expressed in transfected cells
T1 sequence (O43614 1-444): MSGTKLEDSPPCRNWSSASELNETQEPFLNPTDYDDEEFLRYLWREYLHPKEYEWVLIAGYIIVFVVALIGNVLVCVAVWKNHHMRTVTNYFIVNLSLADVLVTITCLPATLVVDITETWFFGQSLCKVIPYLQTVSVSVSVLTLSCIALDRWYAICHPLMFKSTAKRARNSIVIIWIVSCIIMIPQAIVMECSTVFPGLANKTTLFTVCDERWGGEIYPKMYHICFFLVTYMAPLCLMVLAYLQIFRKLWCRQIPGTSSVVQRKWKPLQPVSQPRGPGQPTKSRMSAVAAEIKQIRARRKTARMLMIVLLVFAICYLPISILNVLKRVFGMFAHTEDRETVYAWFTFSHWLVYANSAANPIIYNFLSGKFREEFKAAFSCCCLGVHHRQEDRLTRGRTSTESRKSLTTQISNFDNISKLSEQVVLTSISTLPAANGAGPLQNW
Test: Measurement of orexin type 2 receptor agonist activity (calcium fluorescence, CHO cells expressing hOX2R)
Format: cell-based
Conditions: test compound 3 μM; CHO cells expressing human OX2 receptor; DMSO = 0%, orexin A (human) = 100%
In short: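 CHO-dhfr cells stably expressing hOX2R, loaded with Fluo-4 AM in HBSS/20 mM HEPES/0.1% BSA with probenecid, then given test compound. Calcium fluorescence was read for about 2 min 40 sec. Activity (%) was scaled between DMSO (0%) and 10 nM final human orexin A (100%).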

Structure (SMILES) | OX2R agonist activity (3 μM, %)
CCS(=O)(=O)N[C@H]1CCN(C(=O)C(C)(C)O)[C@H]1Cc1cccc(-c2cccc(F)c2)c1F [Example 389, N-((2S,3S)-2-((2,3′-difluorobiphenyl-3-yl)methyl)-1-(2-hydroxy-2-methylpropanoyl)pyrrolidin-3-yl)ethanesulfonamide] | 102%
CC(C)C(=O)N1CC[C@H](NS(C)(=O)=O)[C@@H]1Cc1cccc(-c2cc(F)cc(F)c2)c1F [Example 402, N-((2S,3S)-1-isobutyryl-2-((2,3′,5′-trifluorobiphenyl-3-yl)methyl)pyrrolidin-3-yl)methanesulfonamide] | 107%
CCS(=O)(=O)N[C@H]1CCN(C(=O)C(C)(C)O)[C@H]1Cc1cccc(-c2cc(F)cc(F)c2)c1 [Example 404, N-((2S,3S)-2-((3′,5′-difluorobiphenyl-3-yl)methyl)-1-(2-hydroxy-2-methylpropanoyl)pyrrolidin-3-yl)ethanesulfonamide] | 100%
CC(C)(O)C(=O)N1CC[C@H](NS(=O)(=O)CF)[C@@H]1Cc1cccc(-c2cccc(F)c2)c1F [Example 417, N-((2S,3S)-2-((2,3′-difluorobiphenyl-3-yl)methyl)-1-(2-hydroxy-2-methylpropanoyl)pyrrolidin-3-yl)-1-fluoromethanesulfonamide] | 110%
CC(C)(O)C(=O)N1CC[C@H](NS(=O)(=O)CF)[C@@H]1Cc1cccc(-c2cc(F)cc(F)c2)c1 [Example 421, N-((2S,3S)-2-((3′,5′-difluorobiphenyl-3-yl)methyl)-1-(2-hydroxy-2-methylpropanoyl)pyrrolidin-3-yl)-1-fluoromethanesulfonamide] | 106%
CC(C)(O)C(=O)N1CC[C@H](NS(C)(=O)=O)[C@@H]1Cc1cccc(-c2cc(F)cc(Cl)c2)c1F [Example 428, N-((2S,3S)-2-((3′-chloro-2,5′-difluorobiphenyl-3-yl)methyl)-1-(2-hydroxy-2-methylpropanoyl)pyrrolidin-3-yl)methanesulfonamide] | 102%
CCS(=O)(=O)N[C@H]1CCN(C(=O)C(C)(C)O)[C@H]1Cc1cccc(-c2cccc(Cl)c2)c1F [Example 431, N-((2S,3S)-2-((3′-chloro-2-fluorobiphenyl-3-yl)methyl)-1-(2-hydroxy-2-methylpropanoyl)pyrrolidin-3-yl)ethanesulfonamide] | 101%
CS(=O)(=O)N[C@H]1CCN(C(=O)C2CCO2)[C@H]1Cc1cccc(-c2cc(F)cc(F)c2)c1F (stereo partly drawn) [Example 441, N-{(2S,3S)-1-(oxetane-2-carbonyl)-2-[(2,3′,5′-trifluoro[1,1′-biphenyl]-3-yl)methyl]pyrrolidin-3-yl}methanesulfonamide] | 99%
O=C(N1CCC1)N1CC[C@H](NS(=O)(=O)CF)[C@@H]1Cc1cccc(-c2cccc(F)c2)c1 [Example 459, N-{(2S,3S)-1-(azetidine-1-carbonyl)-2-[(3′-fluoro[1,1′-biphenyl]-3-yl)methyl]pyrrolidin-3-yl}-1-fluoromethanesulfonamide] | 93%
O=C(N1CCC1)N1CC[C@H](NS(=O)(=O)CF)[C@@H]1Cc1cccc(-c2ccccc2)c1 [Example 460, N-{(2S,3S)-1-(azetidine-1-carbonyl)-2-[([1,1′-biphenyl]-3-yl)methyl]pyrrolidin-3-yl}-1-fluoromethanesulfonamide] | 92%
O=C(N1CCC1)N1CC[C@H](NS(=O)(=O)C2CC2)[C@@H]1Cc1cccc(-c2cccc(F)c2)c1 [Example 462, N-{(2S,3S)-1-(azetidine-1-carbonyl)-2-[(3′-fluoro[1,1′-biphenyl]-3-yl)methyl]pyrrolidin-3-yl}cyclopropanesulfonamide] | 112%
O=C(N1CCC1)N1CC[C@H](NS(=O)(=O)C2CC2)[C@@H]1Cc1cccc(-c2ccccc2)c1 [Example 463, N-{(2S,3S)-1-(azetidine-1-carbonyl)-2-[([1,1′-biphenyl]-3-yl)methyl]pyrrolidin-3-yl}cyclopropanesulfonamide] | 105%
O=C(N1CCC1)N1CC[C@H](NS(=O)(=O)CF)[C@@H]1Cc1cccc(-c2ccccc2)c1F [Example 466, N-{(2S,3S)-1-(azetidine-1-carbonyl)-2-[(2-fluoro[1,1′-biphenyl]-3-yl)methyl]pyrrolidin-3-yl}-1-fluoromethanesulfonamide] | 108%
O=C(N1CCC1)N1CC[C@H](NS(=O)(=O)CF)[C@@H]1Cc1cccc(-c2cccc(F)c2)c1F [Example 467, N-{(2S,3S)-1-(azetidine-1-carbonyl)-2-[(2,3′-difluoro[1,1′-biphenyl]-3-yl)methyl]pyrrolidin-3-yl}-1-fluoro-methanesulfonamide] | 101%
CCS(=O)(=O)N[C@H]1CCN(C(=O)C2CCC2)[C@H]1Cc1cccc(-c2ccccc2)c1 [Example 471, N-[(2S,3S)-2-[([1,1′-biphenyl]-3-yl)methyl]-(cyclobutanecarbonyl)pyrrolidin-3-yl]ethanesulfonamide] | 116%
CC(C)(O)C(=O)N1CC[C@H](NS(=O)(=O)C2(F)CC2)[C@@H]1Cc1cccc(-c2ccccc2)c1F [Example 479, 1-fluoro-N-[(2S,3S)-2-[(2-fluoro[1,1′-biphenyl]-3-yl)methyl]-1-(2-hydroxy-2-methylpropanoyl)pyrrolidin-3-yl] cyclopropane-1-sulfonamide] | 103%
CC(C)(O)C(=O)N1CC[C@H](NS(=O)(=O)C2(F)CC2)[C@@H]1Cc1cccc(-c2cc(F)cc(F)c2)c1F [Example 480, 1-fluoro-N-{(2S,3S)-1-(2-hydroxy-2-methylpropanoyl)-2-[(2,3′,5′-trifluoro[1,1′-biphenyl]-3-yl)methyl]pyrrolidin-3-yl}cyclopropane-1-sulfonamide] | 113%

Results, then the compound that gave them:

OX2R agonist activity (3 μM, %) | Structure (SMILES)
104% | CC(C)(O)C(=O)N1CC[C@H](NS(C)(=O)=O)[C@@H]1Cc1cccc(-c2cc(F)cc(F)c2)c1F [Example 395, N-((2S,3S)-1-(2-hydroxy-2-methylpropanoyl)-2-((2,3′,5′-trifluorobiphenyl-3-yl)methyl)pyrrolidin-3-yl)methanesulfonamide]
107% | CCS(=O)(=O)N[C@H]1CCN(C(=O)N(C)C)[C@H]1Cc1cccc(-c2cc(F)cc(F)c2)c1F [Example 399, (2S,3S)-3-((ethylsulfonyl)amino)-N,N-dimethyl-2-((2,3′,5′-trifluorobiphenyl-3-yl)methyl)pyrrolidine-1-carboxamide]
109% | CC(C)(O)C(=O)N1CC[C@H](NS(=O)(=O)CF)[C@@H]1Cc1cccc(-c2cc(F)cc(F)c2)c1F [Example 423, 1-fluoro-N-((2S,3S)-1-(2-hydroxy-2-methylpropanoyl)-2-((2,3′,5′-trifluorobiphenyl-3-yl)methyl)pyrrolidin-3-yl)methanesulfonamide]
101% | CC(C)(O)C(=O)N1CC[C@H](NS(=O)(=O)C(F)F)[C@@H]1Cc1cccc(-c2cc(F)cc(F)c2)c1F [Example 424, 1,1-difluoro-N-((2S,3S)-1-(2-hydroxy-2-methylpropanoyl)-2-((2,3′,5′-trifluorobiphenyl-3-yl)methyl)pyrrolidin-3-yl)methanesulfonamide]
107% | CCS(=O)(=O)N[C@H]1CCN(C(=O)C(C)(C)O)[C@H]1Cc1cccc(-c2cc(F)cc(F)c2)c1F [Example 435, N-((2S,3S)-1-(2-hydroxy-2-methylpropanoyl)-2-((2,3′,5′-trifluorobiphenyl-3-yl)methyl)pyrrolidin-3-yl)ethanesulfonamide]
99% | CCS(=O)(=O)N[C@H]1CCN(C(=O)C(C)(C)O)[C@H]1Cc1cccc(-c2cc(F)cc(Cl)c2)c1F [Example 437, N-((2S,3S)-2-((3′-chloro-2,5′-difluorobiphenyl-3-yl)methyl)-1-(2-hydroxy-2-methylpropanoyl)pyrrolidin-3-yl)ethanesulfonamide]
98% | CC(C)(O)C(=O)N1CC[C@H](NS(=O)(=O)C2CC2)[C@@H]1Cc1cccc(-c2cc(F)cc(F)c2)c1F [Example 439, N-((2S,3S)-1-(2-hydroxy-2-methylpropanoyl)-2-((2,3′,5′-trifluorobiphenyl-3-yl)methyl)pyrrolidin-3-yl)cyclopropanesulfonamide]
103% | CC(C)(CO)C(=O)N1CC[C@H](NS(C)(=O)=O)[C@@H]1Cc1cccc(-c2cc(F)cc(F)c2)c1F [Example 457, N-{(2S,3S)-1-(3-hydroxy-2,2-dimethylpropanoyl)-2-[(2,3′,5′-trifluoro[1,1′-biphenyl]-3-yl)methyl]pyrrolidin-3-yl}methanesulfonamide]
101% | CCS(=O)(=O)N[C@H]1CCN(C(=O)C(C)(C)O)[C@H]1Cc1cccc(-c2cccc(F)c2)c1F [Example 488, N-((2S,3S)-2-((2,3′-difluorobiphenyl-3-yl)methyl)-1-(2-hydroxy-2-methylpro-panoyl)pyrrolidin-3-yl)ethanesulfona-mide]
